Here are results for two compounds from PMC7778589, “Photosensitizer-based multimodal PSMA-targeting ligands for intraoperative detection of prostate cancer” (Theranostics, 2021).

The term LogD denotes the decadic logarithm of the distribution of all forms, ionised or not, between an organic phase and buffer at a given pH. Higher therefore signals a more lipophilic compound. The term IC50 denotes the concentration that gives 50% inhibition. Read a high IC50 as weaker potency in that assay. As a reminder, the Kd is the constant that tells how readily two partners part at equilibrium.

Data set [1] concerns the target T1, PSMA-expressing LS174T cells (LS174T-PSMA) (Homo sapiens, UniProt Q04609).
T1 construct: expressed in transfected cells; host or cells: LS174T colon carcinoma cells (human), stably transfected with pcDNA3.1-hPSMA
Kind of data set: Binding and internalization assay with 111In-labeled ligands. The data set is classed as cell-based. The settings on record: 2 h 37 °C. As for the experimental part:
Cell lines were purchased from the American Type Culture Collection. LS174T colon carcinoma cells were stably transfected with human PSMA using the plasmid pcDNA3.1-hPSMA and cultured in RPMI 1640 medium supplemented with 2 mM glutamine, 10% FCS, and 0.3 mg/ml G418 at 37 °C in a humidified atmosphere with 5% CO2 [5].
Binding and internalization characteristics of all ligands were compared using LS174T-PSMA and wildtype LS174T cells. Cells were cultured to confluency in 6-wells plates followed by incubation at 37 °C for 2 h in 1 ml binding buffer (RPMI/0.5% BSA) with 50,000 counts per minute (cpm) of ^111In-labeled ligand (0.1-0.25 pmol/well). Nonspecific binding was determined by coincubation with 2-(phosphonomethyl)pentane-1,5-dioic acid (2-PMPA, 21.57 µM). PSMA-specific binding was defined as nonspecific binding subtracted from total binding. To retrieve the membrane-bound fraction, cells were washed with PBS twice and incubated with acid buffer (0.1 M acetic acid, 154 mM NaCl, pH 2.6) for 10 minutes at 0 °C. After incubation, the membrane bound fraction (in acid buffer) was collected, cells were washed, lysed with 0.1 M NaOH and cell lysis (intercellular activity) was collected. Membrane-bound activity and intercellular activity fractions were measured in a gamma-counter (2480 WIZARD^2 Automatic Gamma Counter, PerkinElmer), [25]. Human serum was used to determine the in vitro serum stability of the multimodal ligands (0.8 µg/ml serum, 5 MBq/μg labeling). After incubation for 2 h at 37°C, serum proteins were precipitated by adding a 1:1 (v/v) volume of acetonitrile followed by 5 min of centrifugation at 3220×g. Stability was evaluated by RP-HPLC analysis after 2 h of incubation at 37 °C. […] Experimental details are described in the supplementary materials and methods.

A short description of data set [2]: Lipophilicity, PBS/n-octanol. In kind it is physicochemical. The settings on record: radiolabeled ligand. As for the experimental part:
Tubes were vortexed vigorously for 1 min and centrifuged for 5 min at 201×g for phase separation. The concentration of radioactivity in a defined volume of each layer was measured in a well-type gamma-counter.

A further data set is described as follows: In vitro serum stability. In kind it is in vitro ADME, human. The settings on record: 2 h, 37°C, RP-HPLC. As for the experimental part: (§1) Binding and internalization characteristics of all ligands were compared using LS174T-PSMA and wildtype LS174T cells. Cells were cultured to confluency in 6-wells plates followed by incubation at 37 °C for 2 h in 1 ml binding buffer (RPMI/0.5% BSA) with 50,000 counts per minute (cpm) of ^111In-labeled ligand (0.1-0.25 pmol/well). Nonspecific binding was determined by coincubation with 2-(phosphonomethyl)pentane-1,5-dioic acid (2-PMPA, 21.57 µM). PSMA-specific binding was defined as nonspecific binding subtracted from total binding. To retrieve the membrane-bound fraction, cells were washed with PBS twice and incubated with acid buffer (0.1 M acetic acid, 154 mM NaCl, pH 2.6) for 10 minutes at 0 °C. After incubation, the membrane bound fraction (in acid buffer) was collected, cells were washed, lysed with 0.1 M NaOH and cell lysis (intercellular activity) was collected. Membrane-bound activity and intercellular activity fractions were measured in a gamma-counter (2480 WIZARD^2 Automatic Gamma Counter, PerkinElmer), [25]. Human serum was used to determine the in vitro serum stability of the multimodal ligands (0.8 µg/ml serum, 5 MBq/μg labeling). After incubation for 2 h at 37°C, serum proteins were precipitated by adding a 1:1 (v/v) volume of acetonitrile followed by 5 min of centrifugation at 3220×g. Stability was evaluated by RP-HPLC analysis after 2 h of incubation at 37 °C. […]

Data set [3] has as its system LS174T-PSMA and LS174T xenografts. Description: Biodistribution of 111In-labeled multimodal ligands. The data set is classed as in vivo, BALB/c nude mice. The settings on record: 0.3 nmol, 2 h p.i. As for the experimental part: Animal experiments were performed in 8-10 weeks old male BALB/c nude mice (Janvier). Animals were housed in individually ventilated cages (Blue line IVC, 4-5 mice per cage) under nonsterile standard conditions with cage enrichment present and free access to chlorophyll-free animal chow (Sniff GmbH) and water. Mice were subcutaneously inoculated with 3.0 x 10^6 LS174T-PSMA cells in the left flank and 1.5 × 10^6 LS174T cells in the right flank, diluted in 200 μL of complete RPMI 1640 medium. Eleven days after tumor cell inoculation when xenografts were approximately 0.1 cm^3, tracers were injected intravenously via the tail vein. The researchers were not blinded for the experimental groups and tumor-bearing mice were block-randomized into groups based on tumor size. All experiments were approved by the institutional Animal Welfare Committee of the Radboud university medical center and were conducted in accordance to the guidelines of the Revised Dutch Act on Animal Experimentation.
Mice were injected intravenously with 10 MBq ^111In-labeled PSMA ligands (0.3 nmol, molar activity 33.3 MBq/nmol) in PBS/0.5% BSA. Two hours post injection, mice were euthanized by CO2/O2-asphyxation and images were acquired with the IVIS fluorescence imaging system (Xenogen VivoVision IVIS Lumina II, Caliper Life Sciences), using an acquisition time of 10 s. Subsequently, µSPECT/CT images were acquired (U-SPECT II, MILabs) with a 1.0 mm diameter pinhole mouse collimator tube [26]. Mice were scanned for 30 min followed by a CT scan (spatial resolution 160 μm, 65 kV, 615 μA) for anatomical reference. µSPECT/CT scans were reconstructed with MILabs reconstruction software, using an ordered-subset expectation maximization algorithm, energy windows 154 - 188 keV and 220-270 keV, 3 iterations, 16 subsets, voxel size of 0.4 mm. SPECT/CT scans were analyzed and maximum intensity projections (MIPs) were created using the Inveon Research Workplace software version 4.1 (Siemens Preclinical Solutions). NIRF images were analyzed using Living Image software version 4.2 (Caliper Life Sciences). Tissues of interest were dissected, weighed and measured for radioactivity in a gamma-counter as described above. In the fluorescence-guided surgery feasibility study, pre-operative imaging was performed to visualize tumor tissue. After white light resection, NIRF imaging was repeated to assess if any remaining tumor was present.

Data set [4] concerns the target T2, PSMA-expressing LS174T-PSMA cells (Homo sapiens, UniProt Q04609).
T2 construct: expressed in transfected cells; host or cells: LS174T colon carcinoma cells (human), stably transfected with pcDNA3.1-hPSMA
Description: Competitive binding assay (IC50). The settings on record: on ice 2 h. As for the experimental part: as §1, with “After incubation, the membrane bound fraction (in acid buffer) was collected, cells were washed, lysed with 0.1 M NaOH and cell lysis (intercellular activity) was collected.” left out, “Human serum was used to determine the in vitro serum stability of the multimodal ligands (0.8 µg/ml serum, 5 MBq/μg labeling). After incubation for 2 h at 37°C, serum proteins were precipitated by adding a 1:1 (v/v) volume of acetonitrile followed by 5 min of centrifugation at 3220×g.” left out
(§2) Scatchard analysis was performed to determine the dissociation constant (Kd) of the N064 ligand. […] Non-specific binding was determined by coincubation with 1 µM PSMA-617. […] Cell lysis was collected from the plate and the cell-associated activity was measured in a γ-counter. […] To determine PSMA antigen density per cell and the Kd of multimodal ligands, data were analyzed by linear regression using GraphPad Prism software. […]

Data set [5] deals with T3, LS174T-PSMA-positive cells (Homo sapiens, UniProt Q04609).
T3 construct: expressed in transfected cells; host or cells: LS174T colon carcinoma cells (human), stably transfected with pcDNA3.1-hPSMA
Kind of data set: Scatchard analysis (Kd). In kind it is binding. The settings on record: on ice 4 h. As for the experimental part: as §1, with “After incubation, the membrane bound fraction (in acid buffer) was collected, cells were washed, lysed with 0.1 M NaOH and cell lysis (intercellular activity) was collected.” left out, “Human serum was used to determine the in vitro serum stability of the multimodal ligands (0.8 µg/ml serum, 5 MBq/μg labeling). After incubation for 2 h at 37°C, serum proteins were precipitated by adding a 1:1 (v/v) volume of acetonitrile followed by 5 min of centrifugation at 3220×g.” left out
as §2

T1 sequence (Q04609 whole entry): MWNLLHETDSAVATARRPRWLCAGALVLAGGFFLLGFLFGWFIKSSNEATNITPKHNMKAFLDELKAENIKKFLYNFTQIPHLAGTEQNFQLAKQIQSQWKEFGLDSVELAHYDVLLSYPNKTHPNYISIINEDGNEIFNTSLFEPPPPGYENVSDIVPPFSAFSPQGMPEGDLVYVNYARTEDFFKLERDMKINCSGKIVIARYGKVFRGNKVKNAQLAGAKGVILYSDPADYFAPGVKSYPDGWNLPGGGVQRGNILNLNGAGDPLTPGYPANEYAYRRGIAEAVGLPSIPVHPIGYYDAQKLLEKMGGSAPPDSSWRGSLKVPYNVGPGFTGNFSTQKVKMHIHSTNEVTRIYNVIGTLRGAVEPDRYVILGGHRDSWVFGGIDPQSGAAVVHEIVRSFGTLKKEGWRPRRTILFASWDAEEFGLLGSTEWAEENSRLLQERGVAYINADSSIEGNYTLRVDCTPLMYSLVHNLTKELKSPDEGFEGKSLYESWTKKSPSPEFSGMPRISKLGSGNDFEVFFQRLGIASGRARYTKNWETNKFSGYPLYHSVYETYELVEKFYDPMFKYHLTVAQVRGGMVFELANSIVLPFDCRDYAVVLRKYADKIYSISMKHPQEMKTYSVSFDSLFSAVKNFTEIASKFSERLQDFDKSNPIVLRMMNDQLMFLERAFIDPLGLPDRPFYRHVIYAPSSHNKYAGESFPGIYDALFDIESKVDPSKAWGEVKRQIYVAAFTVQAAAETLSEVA
T3 sequence (Q04609 whole entry): as above
T2 sequence (Q04609 whole entry): as above

In data set [1], `C[Si](C)(CCC[N+](CCCS(=O)(=O)O)(CCCS(=O)(=O)O)CCCS(=O)(=O)O)O[Si-2]123(O[Si](C)(C)CCC[N+](CCCS(=O)(=O)O)(CCCS(=O)(=O)O)CCCS(=O)(=O)O)n4c5c6ccccc6c4N=C4c6cccc(OCCCOC(=O)NCCCCCC(=O)NCCCC[C@H](NC(=O)CCC(C(=O)O)N7CCN(CC(=O)O)CCN(CC(=O)O)CCN(CC(=O)O)CC7)C(=O)NCCOCCOCCOCCOCCC(=O)N[C@H](Cc7ccccc7)C(=O)N[C@@H](CCC(=O)O)C(=O)N[C@@H](CCC(=O)O)C(=O)NCCCCCC(=O)NCCCC[C@H](NC(=O)N[C@@H](CCC(=O)O)C(=O)O)C(=O)O)c6C(=[N+]41)N=c1c4ccccc4c(n12)=NC1=[N+]3C(=N5)c2ccccc21.[Na+].[Na+].[Na+].[Na+]` (stereo partly shown) [N111] registered an Internalized fraction of 0.9 ± 0.06 and a Membrane bound fraction of 0.4 ± 0.05. Further, the LogD in data set [2] is -2.4 ± 0.15. For the same compound, the “Stability in human serum” value in the data set “In vitro serum stability” is on record as “stable”. Also, in data set [3], the Adrenals is reported as 0.9 %ID/g, the Blood amounted to 0.2 %ID/g, the Bone was found to be 0.3 %ID/g and the Bone marrow worked out at 0.3 %ID/g. In data set [3], this compound returned a Duodenum of 0.2 %ID/g, a Heart of 0.3 %ID/g, a Kidney of 59 %ID/g and a Liver of 0.5 %ID/g. In data set [3], this compound yielded a Lung of 0.4 %ID/g, a Muscle of 0.1 %ID/g, a Pancreas of 0.2 %ID/g and a Prostate of 0.5 %ID/g. In data set [3], the Salivary glands turned out to be 0.4 %ID/g, the Spleen is given as 1.3 %ID/g, the Stomach was determined as 0.3 %ID/g and the “Tumor+ LS174T-PSMA” value amounted to 6.5 %ID/g. In data set [3], the “Tumor- LS174T” value is reported as 0.4 %ID/g, the Tumor/Blood ratio was 41.1, the Tumor/Kidney ratio amounted to 0.2 and the Tumor/Liver ratio is 13.7. Besides, in data set [3], the Tumor/Muscle ratio is on record as 71.9, the Tumor/Negative tumor ratio was found to be 24.1, the Tumor/Prostate ratio is given as 17.2 and the Tumor/Salivary gland ratio is 21.5. Besides, the Tumor/Spleen ratio in data set [3] came to 5.7.
On to `O=C(O)CC[C@H](NC(=O)N[C@@H](CCCCNC(=O)[C@H](Cc1ccc2ccccc2c1)NC(=O)[C@H]1CC[C@H](CNC(=O)CN2CCN(CC(=O)O)CCN(CC(=O)O)CCN(CC(=O)O)CC2)CC1)C(=O)O)C(=O)O` [PSMA-617], for which, in data set [4], the IC50 is 52.7 nM. This compound registered a Kd in data set [5] of 15 ± 1.1 nM.
